In patent publication US10206906B2, “Synergistic combination of a phenolic-rich maple syrup extract and an antibiotic” (priority 2015, dated 2019):
Values after ≈ are worked out from the molar mass of the structure shown. Like-named read-outs stand apart in the source and are kept apart here.

Assays:
G. mellonella larvae = G. mellonella larvae survival after injection of extract or antibiotic alone; format: in vivo, Galleria mellonella; details: injected alone; PRMSE 12.5 mg/mL, ciprofloxacin 0.03 μg/mL; within 72 h
Protocol: Each data set is representative of experiments with five larvae per condition in triplicate.
G. mellonella infection assay is performed as described previously with some modification (Jander et al., 2000, J Bacteriol., 182: 3843-3845). Briefly, PA14 culture grown overnight in TSB broth is diluted 1:100 in the same growth medium and further grown to OD600 nm of 1.27 at 37° C. under 100 rpm shaking. Freshly grown culture is centrifuged, and pellets are washed and resuspended in 10 mM MgSO4 to an OD600 of 0.1. […] Ampicillin is used to prevent infection by bacterial contaminants on the surface of the larvae at a final concentration of approximately 5 ng per larva during survival phase. G. mellonella larvae are injected with 5 μL aliquot of each treatment solution using prewashed Hamilton syringe. Five larvae are injected per each treatment and the assay is performed in triplicate. […] All injected larvae are incubated in Petri plates at 28° C. under the dark condition, and the number of dead larvae is scored daily after infection. […] A mock inoculation using prewashed Hamilton syringe is also performed in each experiment to monitor the killing due to physical injury or infection by pathogenic contaminants. […]

[1] = test system: P. aeruginosa PA14 infection; experiment: Galleria mellonella larvae (wax moth) infection assay; format: in vivo; details: monotherapy at sub-MIC (PRMSE 12.5 mg/mL, ciprofloxacin 0.03 μg/mL)
Protocol: Each data set represents one experiment with five larvae per condition in triplicate, the experiment repeated twice (*P<0.05, Mantel-cox test, n=6).
Briefly, PA14 culture grown overnight in TSB broth is diluted 1:100 in the same growth medium and further grown to OD600 nm of 1.27 at 37° C. under 100 rpm shaking. Freshly grown culture is centrifuged, and pellets are washed and resuspended in 10 mM MgSO4 to an OD600 of 0.1. To prepare the lethal dose of P. aeruginosa PA14 culture serial 10-fold dilutions are made in 10 mM MgSO4 supplemented with 1 mg/mL of ampicillin (adjusted to about 1-10^3 bacterial cells in 5 μL of suspension) containing or not containing PRMSE, without and with ciprofloxacin at sub-MICs. Ampicillin is used to prevent infection by bacterial contaminants on the surface of the larvae at a final concentration of approximately 5 ng per larva during survival phase. G. mellonella larvae are injected with 5 μL aliquot of each treatment solution using prewashed Hamilton syringe. Five larvae are injected per each treatment and the assay is performed in triplicate. PRMSE and ciprofloxacin at sub-MICs are assessed individually to monitor adverse effect on larvae survival. […] All injected larvae are incubated in Petri plates at 28° C. under the dark condition, and the number of dead larvae is scored daily after infection. […]

P. aeruginosa PAO1 [2] = experiment: Determination of minimum inhibitory concentration (MIC); format: cell-based; details: Pseudomonas aeruginosa
Protocol: (§1) A range of concentration of antibiotics, ciprofloxacin (0.0003-0.25 μg mL^−1) and carbenicillin (0.5-512 μg mL^−1), are chosen due to their known potency against all four bacterial strains. Dilutions are prepared in flat bottom, 96 well microtitre plates (Falcon™, Corning™, Fisher Scientific, ON, Canada). Each well of a microtitre plate is then inoculated with the desired bacterial strain (grown in MHB-II and diluted to […]) and the plate is incubated at 37° C. for 18 h under static conditions. Bacterial growth is assessed by (i) monitoring the optical density of the cell suspension in each well at 600 nm (OD600 nm), and (ii) the resazurin microtitre plate assay. In the resazurin microtitre plate assay, each well of a microtitre plate is supplemented with 20 μM resazurin, incubated in the dark for 20 min at room temperature, followed by fluorescence measurements at ex/em 570/590 nm using a TECAN Infinite M200 Pro microplate reader (Tecan Group Ltd., Switzerland). The lowest concentration of a compound able to prevent increase in OD600 nm and resazurin fluorescence intensity is recorded as the MIC for that compound.

P. mirabilis HI4320 [3] = experiment: as above; format: cell-based; details: Proteus mirabilis
Protocol: as §1

P. aeruginosa PA14 [4] = experiment: as above; format: cell-based; details: Pseudomonas aeruginosa
Protocol: as §1

E. coli CFT073 [5] = experiment: as above; format: cell-based; details: Escherichia coli
Protocol: as §1

D. melanogaster flies = experiment: D. melanogaster survival when fed extract or antibiotic individually; format: in vivo, Drosophila melanogaster; details: PRMSE 6.25 mg/mL, ciprofloxacin 0.015 μg/mL, within 264 h
Protocol: As well, antibiotic ciprofloxacin is analyzed in combination with PRMSE for its synergistic anti-infective interactions. Fruit flies (D. melanogaster) are infected orally in fly feeding assay as before (Lutter et al., 2008, Infect Immun., 76: 1877-1888), with some modifications. Briefly, flies are anesthetized under a gentle stream of carbon dioxide. Male flies (3- to 5-days-old) are starved of food and water for 5-6 h and separated into vials (10 per vial) containing 5 ml of 5% sucrose agar (sterile) without and with phenolic extract without and with antibiotic at sub-MICs and 2.3-cm filter paper disks (sterile) containing freshly grown bacterial culture suspension. To achieve this freshly grown culture, an overnight P. aeruginosa PA14 culture is inoculated in 6 mL TSB culture and incubated at 37° C. and 100 rpm until OD600=3.0. This culture is centrifuged at 12,000×g for 1 min and the resulting pellet resuspended in 150 μL of sterile 5% sucrose, without and with sub-MICs of phenolic extract or antibiotic. […] Post-infection mortality of flies is monitored daily for 14 days, with each treatment tested twice in duplicate.

[6] = test system: P. aeruginosa PA14 infection; experiment: Drosophila melanogaster (fruit fly) feeding infection assay; format: in vivo; details: monotherapy at sub-MIC (PRMSE 6.25 mg mL^−1, ciprofloxacin 0.015 μg mL^−1)
Protocol: Mortality was scored daily for 14 days. […] Results represent measurements from experiments performed with duplicates, twice (*p<0.01, Log-rank Mantel-cox test).
In this infection assay, PRMSE was analyzed for its anti-infective activity. As well, antibiotic ciprofloxacin is analyzed in combination with PRMSE for its synergistic anti-infective interactions. Fruit flies (D. melanogaster) are infected orally in fly feeding assay as before (Lutter et al., 2008, Infect Immun., 76: 1877-1888), with some modifications. Briefly, flies are anesthetized under a gentle stream of carbon dioxide. Male flies (3- to 5-days-old) are starved of food and water for 5-6 h and separated into vials (10 per vial) containing 5 ml of 5% sucrose agar (sterile) without and with phenolic extract without and with antibiotic at sub-MICs and 2.3-cm filter paper disks (sterile) containing freshly grown bacterial culture suspension. To achieve this freshly grown culture, an overnight P. aeruginosa PA14 culture is inoculated in 6 mL TSB culture and incubated at 37° C. and 100 rpm until OD600=3.0. This culture is centrifuged at 12,000×g for 1 min and the resulting pellet resuspended in 150 μL of sterile 5% sucrose, without and with sub-MICs of phenolic extract or antibiotic. […] Post-infection mortality of flies is monitored daily for 14 days, with each treatment tested twice in duplicate.

P. mirabilis HI4320 [7] = experiment: Checkerboard microdilution assay (growth inhibition synergy); format: cell-based, Proteus mirabilis
Protocol: (§2) The checkerboard microdilution assay is used for evaluation of in vitro antimicrobial synergy between two compounds (i.e., antibiotic/PRMSE, antibiotic/pure phenolic compound, and pure phenolic compounds with each other). Two-fold serial dilutions are prepared in MHB-II for each of the two compounds under study. The serial dilutions are then loaded into 96 well plates to achieve combinations having different concentrations of each of the two compounds. Each well is subsequently inoculated with 10^6 CFU mL^−1 of the desired bacterial strain and incubated at 37° C. for 18 h under static conditions. The Fractional Inhibitory Concentration Index (FICI) for each combination is calculated by using the following formula: FICcomponent 1=MICcomponent 1, in combination/MICcomponent 1,alone FICI=FICcomponent 1+FICcomponent 2
(§3) The FICIs are interpreted as follows: FICI of […] (synergy); 0.5<FICI ≤1 (no interaction/indifference); FICI of >4 (antagonism).

P. aeruginosa PA14 [8] = experiment: Survival of PA14 on sucrose filters during fly feeding assay; format: cell-based, Pseudomonas aeruginosa; details: PRMSE 6.25 mg mL-1, ciprofloxacin 0.015 μg mL-1, mono- and combination; six days
Protocol: Total viable bacterial counts per filter were determined every second day for filters containing bacterial cells on sucrose agar. PA14 cells on filter were untreated or treated with PRMSE (6.25 mg mL-1) or ciprofloxacin (0.015 μg mL-1) alone and in combination. Average data represent data from experiment performed in triplicate and error bars represent S.D.
To address this possibility, the survival of PA14 on the paper discs without and with sub-MICs of PRMSE or antibiotic under the same conditions as the fly feeding assay is analyzed. Enumeration of viable bacteria on filters during the infection period is performed using separate test vials with different treatments inoculated with P. aeruginosa PA14 and inoculated control sucrose vials that are sampled on alternative days, up to 6 days during infection period. Briefly, filters from the test vials are removed in a sterile environment, placed in 50 mL polypropylene tube containing 5 mL of LB broth and vortexed for 30 s. This LB medium containing the sampled bacterial cells is serially diluted in phosphate buffer saline solution (pH 7.4), and 30 μL is plated onto Pseudomonas isolation agar (BD-Difco). Colonies are enumerated after the incubation at 37° C. for 24 h.

P. aeruginosa PA14 lawn = experiment: In vitro analysis of hemolymph recovered from treated G. mellonella larvae; set-up: species or system Galleria mellonella; details: hemolymph recovered 3 h post-injection, spotted on PA14 lawn, 24 h at 37° C.
Protocol: Larvae were injected with PRMSE (mg/mL) or Cip (μg/mL) alone and in combination, and hemolymph recovered 3 h after treatment were spotted on Pseudomonas isolation agar plates previously inoculated with PA14 cells to produce a lawn of confluent growth. The plate was observed after 24 h of incubation at 37° C. The experiment was performed with three larvae per each condition in triplicate. S-control: saline control.
To rule out any growth-inhibitory effect of PRMSE on PA14 cells due to induction of the immune response, production of antimicrobial peptides or transformation of the extract into a toxic compound(s) in the larval hemolymph, an additional set of larvae are injected with 5 μL of PRMSE without and with ciprofloxacin (sub-MICs) or saline solution as a control. The larval hemolymph is recovered at 3 h after the treatment and 5 μL aliquot of each larval hemolymph sample is spotted on the Pseudomonas isolation agar (BD-Difco) plates previously inoculated with PA14 cells to produce a lawn of confluent growth. The appearance of growth inhibition halos is verified after 24 h of incubation at 37° C.

E. coli CFT073 [9] = experiment: Checkerboard microdilution assay (growth inhibition synergy); format: cell-based, Escherichia coli
Protocol: as §2, §3

P. aeruginosa PAO1 [10] = experiment: as above; format: cell-based, Pseudomonas aeruginosa
Protocol: as §2, §3

P. aeruginosa PA14 [11] = experiment: as above; format: cell-based, Pseudomonas aeruginosa
Protocol: as §2, §3

[12] = test system: E. coli CFT073, P. mirabilis HI4320, P. aeruginosa PAO1 and PA14; experiment: Checkerboard microdilution assay, summary over the four strains; format: cell-based; details: labelled constituent + gallic acid; range over the four strains
Protocol: as §2, §3

[13] = ciprofloxacin/PRMSE combination, FIC of the labelled component
[14] = ciprofloxacin in combination with the labelled phenolic constituent
[15] = labelled constituent + catechaldehyde, * = synergistic
[16] = labelled constituent + catechol, * = synergistic
[17] = labelled constituent + gallic acid, * = synergistic
[18] = labelled constituent combined with catechaldehyde
[19] = labelled constituent combined with catechol
[20] = labelled constituent combined with gallic acid
[21] = labelled phenolic constituent + ciprofloxacin, * = synergistic interaction
[22] = labelled phenolic constituent in combination with ciprofloxacin

## O=C(O)c1cn(C2CC2)c2cc(N3CCNCC3)c(F)cc2c1=O [ciprofloxacin, reference compound]
G. mellonella larvae
  killing effect on G. mellonella larvae: no killing effect
[1]
  protection of G. mellonella larvae against PA14 infection: fails to protect
P. aeruginosa PAO1 [2]; PAO1, antibiotic alone, MHB-II, 37° C., 18 h, read-out: MIC
  MIC: 1 µg/mL (≈ 0.00302 mM)
P. mirabilis HI4320 [3]; HI4320, antibiotic alone, MHB-II, 37° C., 18 h, read-out: MIC
  MIC: 0.016 µg/mL (≈ 4.83e-05 mM)
P. aeruginosa PA14 [4]; PA14, antibiotic alone, MHB-II, 37° C., 18 h, read-out: MIC
  MIC: 0.06 µg/mL (≈ 0.000181 mM)
E. coli CFT073 [5]; CFT073, antibiotic alone, MHB-II, 37° C., 18 h, read-out: MIC
  MIC: 0.008 µg/mL (≈ 2.41e-05 mM)
D. melanogaster flies
  killing effect on D. melanogaster flies: no killing effect
[6]
  protection of D. melanogaster against PA14 infection: fails to protect
P. mirabilis HI4320 [7]; [13]
  FIC (Fractional Inhibitory Concentration): 0.02
P. aeruginosa PA14 [8]
  culturability of PA14 cells on filter paper discs: no significant difference
P. aeruginosa PA14 lawn
  effect of recovered larval hemolymph on PA14 growth in vitro: no effect
E. coli CFT073 [9]; [13]
  FIC (Fractional Inhibitory Concentration): 0.25
P. aeruginosa PAO1 [10]; [13]
  FIC (Fractional Inhibitory Concentration): 0.03
P. aeruginosa PA14 [11]; [13]
  FIC (Fractional Inhibitory Concentration): 0.03

## COc1cc(C=O)cc(OC)c1O [syringaldehyde]
P. aeruginosa PAO1 [2]; PAO1, 18 h
  MIC: 5000 µg/mL (≈ 27.4 mM)
P. mirabilis HI4320 [3]; HI4320, 18 h
  MIC: 5000 µg/mL (≈ 27.4 mM)
P. aeruginosa PA14 [4]; PA14, 18 h
  MIC: 5000 µg/mL (≈ 27.4 mM)
E. coli CFT073 [5]; CFT073, 18 h
  MIC: 5000 µg/mL (≈ 27.4 mM)
P. mirabilis HI4320 [7]; [14]
  FIC of ciprofloxacin: 0.5
P. mirabilis HI4320 [7]; [15]
  FICI, catechaldehyde: 0.75
P. mirabilis HI4320 [7]; [16]
  FICI, catechol: 0.75
P. mirabilis HI4320 [7]; [17]
  FICI, gallic acid: 1
P. mirabilis HI4320 [7]; [18]
  FIC, catechaldehyde: 0.25
P. mirabilis HI4320 [7]; [19]
  FIC, catechol: 0.25
P. mirabilis HI4320 [7]; [20]
  FIC, gallic acid: 0.5
P. mirabilis HI4320 [7]; [21]
  FICI: 1
P. mirabilis HI4320 [7]; [22]
  FIC of compound: 0.5
E. coli CFT073 [9]; [14]
  FIC of ciprofloxacin: 0.5
E. coli CFT073 [9]; [15]
  FICI, catechaldehyde: 0.31*
E. coli CFT073 [9]; [16]
  FICI, catechol: 0.31*
E. coli CFT073 [9]; [17]
  FICI, gallic acid: 0.75
E. coli CFT073 [9]; [18]
  FIC, catechaldehyde: 0.25
E. coli CFT073 [9]; [19]
  FIC, catechol: 0.25
E. coli CFT073 [9]; [20]
  FIC, gallic acid: 0.5
E. coli CFT073 [9]; [21]
  FICI: 0.75
E. coli CFT073 [9]; [22]
  FIC of compound: 0.25
P. aeruginosa PAO1 [10]; [14]
  FIC of ciprofloxacin: 1
P. aeruginosa PAO1 [10]; [15]
  FICI, catechaldehyde: 0.5*
P. aeruginosa PAO1 [10]; [16]
  FICI, catechol: 0.5*
P. aeruginosa PAO1 [10]; [17]
  FICI, gallic acid: 1
P. aeruginosa PAO1 [10]; [18]
  FIC, catechaldehyde: 0.25
P. aeruginosa PAO1 [10]; [19]
  FIC, catechol: 0.25
P. aeruginosa PAO1 [10]; [20]
  FIC, gallic acid: 0.5
P. aeruginosa PAO1 [10]; [21]
  FICI: 2
P. aeruginosa PAO1 [10]; [22]
  FIC of compound: 1
P. aeruginosa PA14 [11]; [14]
  FIC of ciprofloxacin: 0.5
P. aeruginosa PA14 [11]; [15]
  FICI, catechaldehyde: 1
P. aeruginosa PA14 [11]; [16]
  FICI, catechol: 1
P. aeruginosa PA14 [11]; [17]
  FICI, gallic acid: 0.63
P. aeruginosa PA14 [11]; [18]
  FIC, catechaldehyde: 0.5
P. aeruginosa PA14 [11]; [19]
  FIC, catechol: 0.5
P. aeruginosa PA14 [11]; [20]
  FIC, gallic acid: 0.13
P. aeruginosa PA14 [11]; [21]
  FICI: 0.75
P. aeruginosa PA14 [11]; [22]
  FIC of compound: 0.25
[12]
  FICIs of pairs with gallic acid: 0.63-1.0
